Reference: ChEMBL document CHEMBL4219213, “The design, synthesis and structure-activity relationships associated with C28 amine-based betulinic acid derivatives as inhibitors of HIV-1 maturation” (Bioorg Med Chem Lett, 2018)

Experiments:
cells [1] = conditions: Human immunodeficiency virus 1, subtype B NL4-3, MT2
cells [2] = conditions: Human immunodeficiency virus 1, subtype B NL4-3, MT2; remark: listed apart in the source
in vivo [3] = conditions: Sprague-Dawley, rat, po, 5 mg/kg
in vivo [4] = conditions: Sprague-Dawley, rat, plasma, po, 5 mg/kg
Description: Plasma concentration in Sprague-Dawley rat at 5 mg/kg, po via gavage after 24 hrs by LC-MS/MS analysis

in vitro [5] = conditions: rat, liver microsomes
Description: Half life in rat liver microsomes at 0.5 uM in presence of NADPH by LC-MS/MS method

in vitro [6] = conditions: human, liver microsomes
Description: Half life in human liver microsomes at 0.5 uM in presence of NADPH by LC-MS/MS method

in vitro [7] = conditions: mouse, liver microsomes
Description: Half life in mouse liver microsomes at 0.5 uM in presence of NADPH by LC-MS/MS method

Rattus norvegicus [8] = assay: Toxicity in Sprague-Dawley rat at 5 to 124 mg/kg, po via gavage up to 24 hrs by LC-MS/MS analysis; assay type: organism-based; conditions: in vivo
in vivo [9] = conditions: Sprague-Dawley, rat, po, 5 mg/kg; remark: listed apart in the source
in vitro [10] = conditions: human, MT2 cells
Description: Cytotoxicity against human MT2 cells

[11] = Dissociation constant, pKa of the compound; assay type: physicochemical
[12] = Oral bioavailability in Sprague-Dawley rat at 35 mg/kg via gavage up to 24 hrs by LC-MS/MS analysis; assay type: ADME, organism-based; conditions: in vivo
Rattus norvegicus [13] = assay: Extrapolated AUC in Sprague-Dawley rat at 35 mg/kg, po via gavage up to 24 hrs by LC-MS/MS analysis; assay type: ADME, organism-based; conditions: in vivo
Rattus norvegicus [14] = assay: Dose normalized AUC in Sprague-Dawley rat at 35 mg/kg, po via gavage up to 24 hrs by LC-MS/MS analysis; assay type: ADME, organism-based; conditions: in vivo
[15] = Total AUC in Sprague-Dawley rat at 35 mg/kg, po via gavage up to 24 hrs by LC-MS/MS analysis; assay type: ADME, organism-based; design: dose 35 mg/kg, time AUCmax, route oral; conditions: in vivo
[16] = AUClast in Sprague-Dawley rat at 35 mg/kg, po via gavage up to 24 hrs by LC-MS/MS analysis; assay type: ADME, organism-based; design: time < 24 hr, dose 35 mg/kg, route oral; conditions: in vivo
[17] = Dose normalized plasma concentration in Sprague-Dawley rat at 35 mg/kg, po via gavage after 24 hrs by LC-MS/MS analysis; assay type: ADME, organism-based; conditions: in vivo
[18] = Plasma concentration in Sprague-Dawley rat at 35 mg/kg, po via gavage after 24 hrs by LC-MS/MS analysis; assay type: ADME, organism-based
[19] = Tmax in Sprague-Dawley rat at 35 mg/kg, po via gavage by LC-MS/MS analysis; assay type: ADME, organism-based; conditions: in vivo
[20] = Cmax in Sprague-Dawley rat at 35 mg/kg, po via gavage by LC-MS/MS analysis; assay type: ADME, organism-based; design: dose 35 mg/kg, route oral; conditions: in vivo
[21] = Oral bioavailability in Sprague-Dawley rat at 11.8 mg/kg via gavage up to 24 hrs by LC-MS/MS analysis; assay type: ADME, organism-based; conditions: in vivo
Rattus norvegicus [22] = assay: Extrapolated AUC in Sprague-Dawley rat at 11.8 mg/kg, po via gavage up to 24 hrs by LC-MS/MS analysis; assay type: ADME, organism-based; conditions: in vivo
Rattus norvegicus [23] = assay: Dose normalized AUC in Sprague-Dawley rat at 11.8 mg/kg, po via gavage up to 24 hrs by LC-MS/MS analysis; assay type: ADME, organism-based; conditions: in vivo
[24] = Cmax in Sprague-Dawley rat at 11.8 mg/kg, po via gavage by LC-MS/MS analysis; assay type: ADME, organism-based; design: dose 11.8 mg/kg, route oral; conditions: in vivo
[25] = Tmax in Sprague-Dawley rat at 11.8 mg/kg, po via gavage by LC-MS/MS analysis; assay type: ADME, organism-based; conditions: in vivo
[26] = Plasma concentration in Sprague-Dawley rat at 11.8 mg/kg, po via gavage after 24 hrs by LC-MS/MS analysis; assay type: ADME, organism-based
[27] = Dose normalized plasma concentration in Sprague-Dawley rat at 11.8 mg/kg, po via gavage after 24 hrs by LC-MS/MS analysis; assay type: ADME, organism-based; conditions: in vivo
[28] = AUClast in Sprague-Dawley rat at 11.8 mg/kg, po via gavage up to 24 hrs by LC-MS/MS analysis; assay type: ADME, organism-based; design: dose 11.8 mg/kg, time < 24 hr, route oral; conditions: in vivo
[29] = Total AUC in Sprague-Dawley rat at 11.8 mg/kg, po via gavage up to 24 hrs by LC-MS/MS analysis; assay type: ADME, organism-based; design: dose 11.8 mg/kg, time AUCmax, route oral; conditions: in vivo
[30] = Cmax in Sprague-Dawley rat at 124 mg/kg, po via gavage by LC-MS/MS analysis; assay type: ADME, organism-based; design: dose 124 mg/kg, route oral; conditions: in vivo
[31] = Tmax in Sprague-Dawley rat at 124 mg/kg, po via gavage by LC-MS/MS analysis; assay type: ADME, organism-based; conditions: in vivo
[32] = Plasma concentration in Sprague-Dawley rat at 124 mg/kg, po via gavage after 24 hrs by LC-MS/MS analysis; assay type: ADME, organism-based
[33] = Dose normalized plasma concentration in Sprague-Dawley rat at 124 mg/kg, po via gavage after 24 hrs by LC-MS/MS analysis; assay type: ADME, organism-based; conditions: in vivo
[34] = AUClast in Sprague-Dawley rat at 124 mg/kg, po via gavage up to 24 hrs by LC-MS/MS analysis; assay type: ADME, organism-based; design: time < 24 hr, dose 124 mg/kg, route oral; conditions: in vivo
[35] = Total AUC in Sprague-Dawley rat at 124 mg/kg, po via gavage up to 24 hrs by LC-MS/MS analysis; assay type: ADME, organism-based; design: dose 124 mg/kg, time AUCmax, route oral; conditions: in vivo
Rattus norvegicus [36] = assay: Dose normalized AUC in Sprague-Dawley rat at 124 mg/kg, po via gavage up to 24 hrs by LC-MS/MS analysis; assay type: ADME, organism-based; conditions: in vivo
Rattus norvegicus [37] = assay: Extrapolated AUC in Sprague-Dawley rat at 124 mg/kg, po via gavage up to 24 hrs by LC-MS/MS analysis; assay type: ADME, organism-based; conditions: in vivo
[38] = Oral bioavailability in Sprague-Dawley rat at 124 mg/kg via gavage up to 24 hrs by LC-MS/MS analysis; assay type: ADME, organism-based; conditions: in vivo
[39] = Cmax in Sprague-Dawley rat at 5 mg/kg, po via gavage by LC-MS/MS analysis; assay type: ADME, organism-based; design: dose 5 mg/kg, route oral; conditions: in vivo
[40] = Tmax in Sprague-Dawley rat at 5 mg/kg, po via gavage by LC-MS/MS analysis; assay type: ADME, organism-based; conditions: in vivo
[41] = Dose normalized plasma concentration in Sprague-Dawley rat at 5 mg/kg, po via gavage after 24 hrs by LC-MS/MS analysis; assay type: ADME, organism-based; conditions: in vivo
[42] = AUClast in Sprague-Dawley rat at 5 mg/kg, po via gavage up to 24 hrs by LC-MS/MS analysis; assay type: ADME, organism-based; design: time < 24 hr, dose 5 mg/kg, route oral; conditions: in vivo
[43] = Total AUC in Sprague-Dawley rat at 5 mg/kg, po via gavage up to 24 hrs by LC-MS/MS analysis; assay type: ADME, organism-based; design: dose 5 mg/kg, time AUCmax, route oral; conditions: in vivo
Rattus norvegicus [44] = assay: Dose normalized AUC in Sprague-Dawley rat at 5 mg/kg, po via gavage up to 24 hrs by LC-MS/MS analysis; assay type: ADME, organism-based; conditions: in vivo
Rattus norvegicus [45] = assay: Extrapolated AUC in Sprague-Dawley rat at 5 mg/kg, po via gavage up to 24 hrs by LC-MS/MS analysis; assay type: ADME, organism-based; conditions: in vivo
[46] = Oral bioavailability in Sprague-Dawley rat at 5 mg/kg via gavage up to 24 hrs by LC-MS/MS analysis; assay type: ADME, organism-based; conditions: in vivo

C=C(C)[C@@H]1CC[C@]2(C(=O)NCCN(C)C)CC[C@]3(C)[C@H](CC[C@@H]4[C@@]5(C)CC=C(c6ccc(C(=O)O)cc6)C(C)(C)[C@@H]5CC[C@]43C)[C@@H]12
IC50 (cells [1]): 0.031 µM
EC50 (cells [2]): 0.201 µM
AUC(0-t) at 24 h (in vivo [3]): 3.81 µM·h
concentration at 24 h (in vivo [4]): 27 nM
half-life at 0.5 µM (in vitro [5]): > 2 h
half-life at 0.5 µM (in vitro [6]): > 2 h
half-life at 0.5 µM (in vitro [7]): > 2 h

C=C(C)[C@@H]1CC[C@]2(CNCCCN3CCS(=O)(=O)CC3)CC[C@]3(C)[C@H](CC[C@@H]4[C@@]5(C)CC=C(c6ccc(C(=O)O)cc6)C(C)(C)[C@@H]5CC[C@]43C)[C@@H]12
Activity (Rattus norvegicus [8]): Non-Toxic
EC50 (cells [2]): 0.02 µM
AUC(0-t) at 24 h (in vivo [3]): 2.81 µM·h
AUC(0-t) at 6 h (in vivo [9]): 1.71 µM·h
CC50 (in vitro [10]): 3.5 µM

C=C(C)[C@@H]1CC[C@]2(CNCCN(C)C)CC[C@]3(C)[C@H](CC[C@@H]4[C@@]5(C)CC=C(c6ccc(C(=O)O)cc6)C(C)(C)[C@@H]5CC[C@]43C)[C@@H]12
IC50 (cells [1]): 0.021 µM
AUC(0-t) at 24 h (in vivo [3]): 1.28 µM·h
CC50 (in vitro [10]): 1.2 µM
half-life at 0.5 µM (in vitro [5]): > 2 h
half-life at 0.5 µM (in vitro [6]): > 2 h
half-life at 0.5 µM (in vitro [7]): > 2 h

C=C(C)[C@@H]1CC[C@]2(CNCCN3CCOCC3)CC[C@]3(C)[C@H](CC[C@@H]4[C@@]5(C)CC=C(c6ccc(C(=O)O)cc6)C(C)(C)[C@@H]5CC[C@]43C)[C@@H]12
pKa [11]: 8.2
IC50 (cells [1]): 0.015 µM
CC50 (in vitro [10]): 5 µM
half-life at 0.5 µM (in vitro [5]): > 2 h
half-life at 0.5 µM (in vitro [6]): 1.62 h
half-life at 0.5 µM (in vitro [7]): 1.5 h

C=C(C)[C@@H]1CC[C@]2(CN(C)CCCN3CCS(=O)(=O)CC3)CC[C@]3(C)[C@H](CC[C@@H]4[C@@]5(C)CC=C(c6ccc(C(=O)O)cc6)C(C)(C)[C@@H]5CC[C@]43C)[C@@H]12
IC50 (cells [1]): 0.026 µM
AUC(0-t) at 24 h (in vivo [3]): 9.06 µM·h
AUC(0-t) at 6 h (in vivo [9]): 4.83 µM·h
CC50 (in vitro [10]): 10 µM
half-life at 0.5 µM (in vitro [5]): > 2 h
half-life at 0.5 µM (in vitro [6]): > 2 h
half-life at 0.5 µM (in vitro [7]): > 2 h

C=C(C)[C@@H]1CC[C@]2(CNCCCN3CCS(=O)(=O)CC3)CC[C@]3(C)[C@H](CC[C@@H]4[C@@]5(C)CC=C(c6ccc(C(=O)O)cc6)C(C)(C)[C@@H]5CC[C@]43C)[C@@H]12.Cl
bioavailability [12]: 7%
%AUCextra (Rattus norvegicus [13]): 14%
AUC/dose (Rattus norvegicus [14]): 378 µM·h
AUC at 24 h [15]: 13.2 µM·h
AUC(0-t) at 24 h [16]: 11.4 µM·h
Cp/dose [17]: 6.7 nM
concentration at 24 h [18]: 234 nM
Tmax [19]: 5.3 h
Cmax [20]: 451 nM
bioavailability [21]: 8%
%AUCextra (Rattus norvegicus [22]): 2%
AUC/dose (Rattus norvegicus [23]): 461 µM·h
Cmax [24]: 285 nM
Tmax [25]: 4.7 h
concentration at 24 h [26]: 91 nM
Cp/dose [27]: 7.7 nM
AUC(0-t) at 24 h [28]: 5.31 µM·h
AUC at 24 h [29]: 5.44 µM·h
Cmax [30]: 697 nM
Tmax [31]: 17.3 h
concentration at 24 h [32]: 635 nM
Cp/dose [33]: 5.1 nM
AUC(0-t) at 24 h [34]: 23.2 µM·h
AUC at 24 h [35]: 29.1 µM·h
AUC/dose (Rattus norvegicus [36]): 235 µM·h
%AUCextra (Rattus norvegicus [37]): 17%
bioavailability [38]: 4%
Cmax [39]: 232 nM
Tmax [40]: 6.7 h
Cp/dose [41]: 6.8 nM
AUC(0-t) at 24 h [42]: 2.99 µM·h
AUC at 24 h [43]: 3.25 µM·h
AUC/dose (Rattus norvegicus [44]): 650 µM·h
%AUCextra (Rattus norvegicus [45]): 8%
bioavailability [46]: 12%
concentration at 24 h (in vivo [4]): 34 nM

C=C(C)[C@@H]1CC[C@]2(CNCCCN3CCOCC3)CC[C@]3(C)[C@H](CC[C@@H]4[C@@]5(C)CC=C(c6ccc(C(=O)O)cc6)C(C)(C)[C@@H]5CC[C@]43C)[C@@H]12
pKa [11]: 8.2
IC50 (cells [1]): 0.028 µM
AUC(0-t) at 6 h (in vivo [9]): 0.045 µM·h
CC50 (in vitro [10]): 2.2 µM

C=C(C)[C@@H]1CC[C@]2(CNCCN3CCC(F)(F)CC3)CC[C@]3(C)[C@H](CC[C@@H]4[C@@]5(C)CC=C(c6ccc(C(=O)O)cc6)C(C)(C)[C@@H]5CC[C@]43C)[C@@H]12
pKa [11]: 8.6
IC50 (cells [1]): 0.057 µM
CC50 (in vitro [10]): 8.5 µM
half-life at 0.5 µM (in vitro [5]): > 2 h
half-life at 0.5 µM (in vitro [6]): > 2 h
half-life at 0.5 µM (in vitro [7]): > 2 h
